Tested on: Amphistome ova
Assay: Deworming in cows positive for Amphistome ova (ova checked from dung matter)
Type: in vivo
Conditions: before treatment (baseline)
Source text: In one embodiment efficacy of diarylheptanoid metal complex on deworming in cows was studied. Cows positive for Amphistome ova were selected and treated with diarylheptanoid metal complex. Deworming in cows is important for several reasons. First, internal parasites or worms can cause significant harm to cow health and productivity. These parasites can cause damage to the cow's gastrointestinal tract, leading to reduced feed intake, weight loss, and poor growth rates. In severe cases, internal parasites can even lead to death. Second, internal parasites can also have economic impacts on the farm. Infected cows may have reduced milk production and lower-quality meat, which can lead to financial losses for the farmer. Third, internal parasites can also be a source of infection for other animals on the farm. Some parasites can be passed from cow to cow or from cow to other species such as sheep or goats. After 30 days of treatment with diarylheptanoid calcium complex, the number of Ova in the dung matter is nil compared to untreated control.
Twenty cows that were positive for Amphistome ova were selected for this study. Cows were grouped into four groups with 5 cows in each group. Cows were segregated as follows.
Before and after 30 days of treatment ova was checked from the dung matter.

CCCSc1ccc2nc(NC(=O)OC)[nH]c2c1 [Albendazole]
Ova Before: + + + + +
